Measurements: patent US8420657B2 (Novartis AG, priority 2008, dated 2013)

Columns and labels:
[1] = system: JAK2-dependent nuclear translocation of STAT5-GFP in U-2 OS osteosarcoma cells; assay: STAT5 nuclear translocation assay (Cellomics), rhEpo stimulated U-2 OS STAT5-GFP cells; type: cell-based; conditions: Homo sapiens, U2OS; STAT5 translocation pathway
Text: The medium-throughput (96-well format) cellular automated fluorescence microscopy Cellomics assay can be routinely used to assess the functional activation of Janus Kinases (JAKs), based on the nuclear translocation of their substrate, Signal Transducer and Activator of Transcription (STAT). Nuclear translocation can be monitored either in HT1080 fibrosarcoma cells stably transfected with STAT1 fused to Green Fluorescence Protein (GFP) or in U-2 OS osteosarcoma cells stably transfected with STAT5 fused to Green Fluorescence Protein (GFP). Stimulation of HT1080 cells with interferon-γ (IFN-γ) results in JAK1/JAK2-dependent nuclear translocation of STAT1-GFP, whereas stimulation of U-2 OS cells with recombinant human erythropoietin (rhEpo) results in JAK2-dependent nuclear translocation of STAT5-GFP, both of which can be quantified using the Cellomics Cyto/NucTrans software package. This assay may be used to provide an assessment of the nuclear-cytoplasmic differential (NCD) of STAT-GFP using Hoechst dye to define the boundaries of the nucleus.
U-2 OS osteosarcoma cells may be obtained from ATCC and can be cultured in standard RPMI medium supplemented with 10% FCS and 2 mM L-glutamine. Cells can be stably transfected with STAT5a-GFP using Lipofectamine following the manufacturers' protocol. 24 hours after transfection the medium can be replaced and selected in 400 μg/ml Geneticin. Subsequently, cells can be stably transfected with EpoR using Lipofectamine following the manufacturers' protocol. 24 hours after transfection the medium can be replaced and cells selected in 100 μg/ml Hygromycin B.
Compounds can be dissolved in DMSO to a final stock concentration of 10 mM and stored as aliquots at 4° C. Compounds may be pre-diluted in 100% DMSO at 10 mM, 3 mM 1 mM, 0.3 mM, 0.1 mM, 0.03 mM, 0.01 mM and 0.003 mM. Subsequently, compounds may be diluted in medium and added in 50 μl to the cells. The final compound concentrations tested may be 10 μM, 3 μM 1 μM, 0.3 μM, 0.1 μM, 0.03 μM, 0.01 μM and 0.003 μM and the final DMSO concentration can be 0.1%.
U-2 OS may be seeded at a cell density of 12,000 cells per well in clear-bottom black 96-well Packard View-Plates™. The following day, medium can be removed and replaced with medium containing either the vehicle (DMSO) or increasing concentrations of test compounds for 30 minutes at 37° C. Cells can then be stimulated for 1 hour by adding 10 μl per well of 50 U/ml rhEpo to obtain 5 U/ml of rhEpo as the final concentration. Following treatments, cells can fixed and processed as described above.
The plates can be read on a Cellomics® ArrayscanII automated fluorescence microscope plate reader equipped with a Mercury-Xenon white light illumination source and a Zeiss Axiovert inverted microscope, using the XF100 dichroic/emission filter cube and matching excitation filters, 10× magnification, and a 0.3 numerical aperture objective. Image acquisition and analysis can be performed using a customized protocol based on the ‘NuclearTranslocation’ Bioapplication. For each well, multiple images (fields) can be acquired until a minimum of 1000 cells are counted using two 2 channels: Channel 1 (Hoechst)=focus+nuclear mask, Channel 2 (GFP)=signal quantification in mask areas as outlined below. Nuclei may be first identified based on the Hoechst staining and a mask generated for each nucleus that then serves as a template to generate a circle (eroded inwards by 1 pixel) and a 3 pixel-wide collar-like ring (off-set outwards by 1 pixel), in which the nuclear and cytoplasmic intensity of GFP, respectively, are quantified in the corresponding channel. High content analysis yields numerous measurements per cell and the GFP intensity differential between the nuclear and the cytoplasmic masks may be chosen as a measure of sub-cellular STAT-GFP relocation. The resulting values may be averaged for all cells in the well to return a single measurement plus standard deviation. […]

GST-JAK2(808-1132) = molecular target: T1, GST-JAK2(808-1132) (Homo sapiens, UniProt O60674); assay: JAK2 kinase assay (Caliper mobility shift, LabChip 3000); type: biochemical
T1 construct: GST-JAK2(808-1132); purchased Invitrogen (Carlsbad, USA) #4288
Procedure, shortened: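 Eight-point compound series (final 10–0.003 μM) tested on purchased GST-JAK2 kinase domain (808-1132). Peptide FITC-JAK3tide plus ATP reacted 60 min, 30 °C, then quenched with EDTA; turnover from charge-based separation of substrate and product.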

T1 sequence (O60674 808-1132): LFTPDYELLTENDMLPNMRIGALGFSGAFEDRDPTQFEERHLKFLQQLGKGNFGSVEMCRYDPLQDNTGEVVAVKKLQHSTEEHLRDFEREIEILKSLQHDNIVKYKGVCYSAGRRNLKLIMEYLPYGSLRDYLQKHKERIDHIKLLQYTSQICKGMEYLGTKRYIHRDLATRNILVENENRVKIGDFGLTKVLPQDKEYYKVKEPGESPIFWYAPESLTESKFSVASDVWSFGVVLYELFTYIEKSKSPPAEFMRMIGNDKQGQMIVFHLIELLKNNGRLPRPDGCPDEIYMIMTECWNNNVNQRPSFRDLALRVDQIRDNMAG

Q: For `CC(C)S(=O)(=O)Nc1ccc(-n2ccc3cnc(Nc4ccc(N5C[C@@H](C)N[C@@H](C)C5)nc4)nc32)cc1` [Example 375, Propane-2-sulfonic acid (4-{2-[6-(cis-3,5-dimethyl-piperazin-1-yl)-pyridin-3-ylamino]-pyrrolo[2,3-d]pyrimidin-7-yl}-phenyl)-amide], which IC50 [1] is on record?
A: 7.7 nM

Q: What about the IC50 (GST-JAK2(808-1132)) of the same compound?
A: 6.5 nM

Q: What does the source list for `Cc1ccc(Nc2ncc3ccn(-c4ccc(S(=O)(=O)NC(C)(C)C)cc4)c3n2)cc1CN1CCNCC1` [Example 376, N-tert-Butyl-4-[2-(4-methyl-3-piperazin-1-ylmethyl-phenylamino)-pyrrolo[2,3-d]pyrimidin-7-yl]-benzenesulfonamide]?
A: IC50 [1]: 67 nM; IC50 (GST-JAK2(808-1132)): ≤ 3 nM

Q: Which IC50 [1] does the source give for `CN1CCN(c2ccc(Nc3ncc4ccn(-c5cc(F)c(CN6CCOCC6)c(F)c5)c4n3)nc2)CC1` [Example 377, [7-(3,5-Difluoro-4-morpholin-4-ylmethyl-phenyl)-7H-pyrrolo[2,3-d]pyrimidin-2-yl]-[5-(4-methyl-piperazin-1-yl)-pyridin-2-yl]-amine] here?
A: > 2600 nM

Q: What about the IC50 (GST-JAK2(808-1132)) of the same compound?
A: 49 nM

Q: Which IC50 [1] does the source give for `O=C(c1ccc(-n2ccc3cnc(Nc4ccc(CC5CCNCC5)cc4)nc32)cc1F)N1CCOCC1` [Example 381, {2-Fluoro-4-[2-(4-piperidin-4-ylmethyl-phenylamino)-pyrrolo[2,3-d]pyrimidin-7-yl]-phenyl}-morpholin-4-yl-methanone] here?
A: 43 nM

Q: And the IC50 (GST-JAK2(808-1132))?
A: ≤ 3 nM

Q: Which results are given for `Fc1cc(-n2ccc3cnc(Nc4ccc(CC5CCNCC5)cc4)nc32)cc(F)c1CN1CCOCC1` [Example 383, [7-(3,5-Difluoro-4-morpholin-4-ylmethyl-phenyl)-7H-pyrrolo[2,3-d]pyrimidin-2-yl]-(4-piperidin-4-ylmethyl-phenyl)-amine]?
A: IC50 [1]: 6.1 nM; IC50 (GST-JAK2(808-1132)): 5.1 nM

Q: Which results are given for `CN1CCN(Cc2cc(Nc3ncc4ccn(-c5cc(F)c(CN6CCOCC6)c(F)c5)c4n3)ccn2)CC1` [Example 384, [7-(3,5-Difluoro-4-morpholin-4-ylmethyl-phenyl)-7H-pyrrolo[2,3-d]pyrimidin-2-yl]-[2-(4-methyl-piperazin-1-ylmethyl)-pyridin-4-yl]-amine]?
A: IC50 [1]: 12 nM; IC50 (GST-JAK2(808-1132)): ≤ 3 nM

Q: What does the source list for `Cc1ccc(Nc2ncc3ccn(-c4cc(F)c(CN5CCOCC5)c(F)c4)c3n2)cc1CN1CCNC(C)(C)C1` [Example 385, [7-(3,5-Difluoro-4-morpholin-4-ylmethyl-phenyl)-7H-pyrrolo[2,3-d]pyrimidin-2-yl]-[3-(3,3-dimethyl-piperazin-1-ylmethyl)-4-methyl-phenyl]-amine]?
A: IC50 [1]: 65.5 nM; IC50 (GST-JAK2(808-1132)): ≤ 3 nM

Q: Which results are given for `Cc1ccc(Nc2ncc3ccn(-c4ccc(C(=O)N5CCOCC5)c(F)c4)c3n2)cc1CN1CCNC(C)(C)C1` [Example 386, (4-{2-[3-(3,3-Dimethyl-piperazin-1-ylmethyl)-4-methyl-phenylamino]-pyrrolo[2,3-d]pyrimidin-7-yl}-2-fluoro-phenyl)-morpholin-4-yl-methanone]?
A: IC50 [1]: 101 nM; IC50 (GST-JAK2(808-1132)): 110 nM

Q: Which results are given for `Cc1ccc(Nc2ncc3ccn(-c4ccc(S(=O)(=O)NC(C)(C)C)cc4)c3n2)cc1CN1C[C@@H](C)N[C@@H](C)C1` [Example 387, N-tert-Butyl-4-{2-[3-(cis-3,5-dimethyl-piperazin-1-ylmethyl)-4-methyl-phenylamino]-pyrrolo[2,3-d]pyrimidin-7-yl}-benzenesulfonamide]?
A: IC50 [1]: 45.5 nM; IC50 (GST-JAK2(808-1132)): 9.6 nM

Q: For `O=C(c1cc(Nc2ncc3ccn(-c4cc(F)c(CN5CCOCC5)c(F)c4)c3n2)ccn1)N1CCNCC1` [Example 390, {4-[7-(3,5-Difluoro-4-morpholin-4-ylmethyl-phenyl)-7H-pyrrolo[2,3-d]pyrimidin-2-ylamino]-pyridin-2-yl}-piperazin-1-yl-methanone], which IC50 [1] is on record?
A: 104 nM

Q: What about the IC50 (GST-JAK2(808-1132)) of the same compound?
A: 15 nM

Q: Which IC50 [1] does the source give for `C[C@@H]1CN(Cc2cc(Nc3ncc4ccn(-c5cc(F)c(CN6CCOCC6)c(F)c5)c4n3)ccn2)C[C@H](C)N1` [Example 391, [7-(3,5-Difluoro-4-morpholin-4-ylmethyl-phenyl)-7H-pyrrolo[2,3-d]pyrimidin-2-yl]-[2-(cis-3,5-dimethyl-piperazin-1-ylmethyl)-pyridin-4-yl]-amine] here?
A: 150 nM

Q: What about the IC50 (GST-JAK2(808-1132)) of the same compound?
A: 4.9 nM

Q: Which IC50 [1] does the source give for `Fc1cc(-n2ccc3cnc(Nc4ccnc(OCC5CCNCC5)c4)nc32)cc(F)c1CN1CCOCC1` [Example 392, [7-(3,5-Difluoro-4-morpholin-4-ylmethyl-phenyl)-7H-pyrrolo[2,3-d]pyrimidin-2-yl]-[2-(piperidin-4-ylmethoxy)-pyridin-4-yl]-amine] here?
A: 68 nM

Q: What about the IC50 (GST-JAK2(808-1132)) of the same compound?
A: ≤ 3 nM

Q: `Cc1ccc(Nc2ncc3ccn(-c4cc(F)c(CN5CCOCC5)c(F)c4)c3n2)cc1CN1CCC(F)(F)C1` [Example 393, [7-(3,5-Difluoro-4-morpholin-4-ylmethyl-phenyl)-7H-pyrrolo[2,3-d]pyrimidin-2-yl]-[3-(3,3-difluoro-pyrrolidin-1-ylmethyl)-4-methyl-phenyl]-amine] was tested. Which IC50 [1] did it give?
A: 52 nM

Q: What about the IC50 (GST-JAK2(808-1132)) of the same compound?
A: 13 nM

Q: With `Cc1ccc(Nc2ncc3ccn(-c4cc(F)c(CN5CCOCC5)c(F)c4)c3n2)cc1CN1CC(O)C1` [Example 394, 1-{5-[7-(3,5-Difluoro-4-morpholin-4-ylmethyl-phenyl)-7H-pyrrolo[2,3-d]pyrimidin-2-ylamino]-2-methyl-benzyl}-azetidin-3-ol] as the compound, how does the IC50 [1] read?
A: 1.6 nM

Q: And the IC50 (GST-JAK2(808-1132))?
A: ≤ 3 nM

Q: How did the IC50 [1] turn out when `Cc1ccc(Nc2ncc3ccn(-c4cc(F)c(CN5CCOCC5)c(F)c4)c3n2)cc1CN1CCN(C)C(=O)C1` [Example 395, 4-{5-[7-(3,5-Difluoro-4-morpholin-4-ylmethyl-phenyl)-7H-pyrrolo[2,3-d]pyrimidin-2-ylamino]-2-methyl-benzyl}-1-methyl-piperazin-2-one] was run?
A: 17 nM

Q: And the IC50 (GST-JAK2(808-1132))?
A: ≤ 3 nM

Q: What does the source list for `CN(C)CCN1CCN(Cc2cc(Nc3ncc4ccn(-c5cc(F)c(CN6CCOCC6)c(F)c5)c4n3)ccn2)CC1` [Example 396, [7-(3,5-Difluoro-4-morpholin-4-ylmethyl-phenyl)-7H-pyrrolo[2,3-d]pyrimidin-2-yl]-{2-[4-(2-dimethylamino-ethyl)-piperazin-1-ylmethyl]-pyridin-4-yl}-amine]?
A: IC50 [1]: 147 nM; IC50 (GST-JAK2(808-1132)): ≤ 3 nM

Q: How did the IC50 [1] turn out when `CN1CCN(Cc2cc(Nc3ncc4ccn(-c5cc(F)c(CN6CCOCC6)c(F)c5)c4n3)ccn2)CC1=O` [Example 397, 4-{4-[7-(3,5-Difluoro-4-morpholin-4-ylmethyl-phenyl)-7H-pyrrolo[2,3-d]pyrimidin-2-ylamino]-pyridin-2-ylmethyl}-1-methyl-piperazin-2-one] was run?
A: 13 nM

Q: And the IC50 (GST-JAK2(808-1132))?
A: ≤ 3 nM

Q: Which results are given for `Cc1ccc(Nc2ncc3ccn(-c4cc(F)c(CN5CCOCC5)c(F)c4)c3n2)cc1CN1CCN(CCN(C)C)CC1` [Example 398, [7-(3,5-Difluoro-4-morpholin-4-ylmethyl-phenyl)-7H-pyrrolo[2,3-d]pyrimidin-2-yl]-{3-[4-(2-dimethylamino-ethyl)-piperazin-1-ylmethyl]-4-methyl-phenyl}-amine]?
A: IC50 [1]: 245 nM; IC50 (GST-JAK2(808-1132)): ≤ 3 nM

Q: What does the source list for `Cc1ccc(Nc2ncc3ccn(-c4cc(F)c(CN5CCOCC5)c(F)c4)c3n2)cc1CN1CCNCC1=O` [Example 399, 1-{5-[7-(3,5-Difluoro-4-morpholin-4-ylmethyl-phenyl)-7H-pyrrolo[2,3-d]pyrimidin-2-ylamino]-2-methyl-benzyl}-piperazin-2-one]?
A: IC50 [1]: 6.6 nM; IC50 (GST-JAK2(808-1132)): ≤ 3 nM
